Experimental data taken from patent US20260102387A1, “IMMUNOSUPPRESSIVE COMPOUNDS” (UNIVERSITÄT BASEL, priority 2022, published 2026).
Entries after “also recorded” stand apart in the source; their conditions may differ.

tested on: coronin 1 promoter; assay: EC50 analysis for coronin 1 promoter driven GFP inhibition by flow cytometry in RBL cells; format: cell-based; settings: Amlodipine 3.125 μM, verapamil 8 μM, 48 h, flow cytometry
Experimental: RBL cells that had been incubated with the indicated calcium channel blockers (amlodipine (3.125 μM) and verapamil (8 μM) concentrations for 48 h were analyzed by flow cytometry for any alteration in coronin 1 promoter driven GFP fluorescence. The results reveal no effect of calcium channel blockers on coronin 1 promoter activity (FIG. 4).
(§1) RBL cells expressing GFP under coronin 1 promoter and optionally with RBL cells expressing RFP under CMV promoter were mixed in equal numbers and incubated with the compounds at indicated concentrations for 48-65 h and analyzed by flow cytometry for alteration in coronin 1 promoter (GFP fluorescence), CMV promoter (RFP fluorescence) values. In addition, the cells were labelled with live-dead marker for assessing cell viability status by flow cytometry. Cycloheximide (CHX) serves as positive control and DMSO serves as negative controls. Effective Concentration (EC50) values for coronin 1 promoter inhibition via GFP fluorescence analysis, non-specific promoter inhibition via CMV promoter driven-RFP fluorescence analysis and cell viability via live/dead staining as a measure for toxicity in flow cytometry for compounds (10-22 and 50a-65a) are shown in Table 6 and Table 7. Based on the EC50 analysis of the inhibition of coronin 1 promoter driven GFP fluorescence the (4S,7R)-configurated eutomers were identified (Structures FIG. 9A-C). This is exemplified for compounds containing two stereocenters by eutomers 11c and 13a. […] Subsequent EC50 evaluations (Table 7) were performed with compound 13a as standard for relative potency normalized to a value of 1.00 (relative potency calculated as [EC50 GFP inhibition 13a]/[EC50 GFP inhibition compound of interest]).

Row | Structure (SMILES) | coronin 1 promoter activity as assessed by GFP reduction
1 | CCOC(=O)C1=C(COCCN)NC(C)=C(C(=O)OC)C1c1ccccc1Cl (stereo not drawn) [Amlodipine, reference compound] | no effect
2 | COc1ccc(CCN(C)CCCC(C#N)(c2ccc(OC)c(OC)c2)C(C)C)cc1OC (stereo not drawn) [verapamil, reference compound] | no effect; also recorded: not inhibiting coronin 1 promoter activity

same assay, conditions: RBL, RBL cells, 48-65 h, flow cytometry

Row | Structure (SMILES) | EC50
3 | COc1ccccc1[C@H]1CC(=O)C2=C(C1)NC(C)=C(C(=O)OC[C@@H]1CCCO1)[C@H]2c1cccc(O)c1 (racemic) [12c, tetrahydro-2-furanylmethyl-4-(3-hydroxyphenyl)-7-(2-methoxyphenyl)-2-methyl-5-oxo-1,4,5,6,7,8-hexahydro-3-quinolinecarboxylate] | 200 nM

same assay, conditions: [EC50 GFP inhibition 13a]/[EC50 GFP inhibition compound of interest]; 13a = 1.00

Row | Structure (SMILES) | rel. potency GFP inhibition
4 | COc1ccccc1[C@H]1CC(=O)C2=C(C1)NC(C)=C(C(=O)OC1CCCOCC1)[C@H]2c1cccc(O)c1 (mixture of isomers) [54a, oxepan-4-yl 4-(3-hydroxyphenyl)-7-(2-methoxyphenyl)-2-methyl-5-oxo-1,4,5,6,7,8-hexahydroquinoline-3-carboxylate] | 0.88
5 | COc1ccccc1[C@H]1CC(=O)C2=C(C1)NC(C)=C(C(=O)OC1CCOCC1)C2c1ccc(F)c(O)c1 (mixture of isomers) [66b, tetrahydro-2H-pyran-4-yl 4-(4-fluoro-3-hydroxyphenyl)-7-(2-methoxyphenyl)-2-methyl-5-oxo-1,4,5,6,7,8-hexahydroquinoline-3-carboxylate] | 0.25
6 | COc1ccccc1C1CC(=O)C2=C(C1)NC(C)=C(C(=O)OC1CCOCC1)C2c1ccc(F)c(O)c1F (racemic) [67b, tetrahydro-2H-pyran-4-yl 4-(2,4-difluoro-3-hydroxyphenyl)-7-(2-methoxyphenyl)-2-methyl-5-oxo-1,4,5,6,7,8-hexahydroquinoline-3-carboxylate] | 0.25
7 | COc1ccccc1[C@H]1CC(=O)C2=C(C1)NC(C)=C(C(=O)OC[C@H]1CCCO1)[C@H]2c1cccc(O)c1 [12g, tetrahydro-2-furanylmethyl (4S, 7R)-4-(3-hydroxyphenyl)-7-(2-methoxyphenyl)-2-methyl-5-oxo-1,4,5,6,7,8-hexahydro-3-quinolinecarboxylate] | 1.00
8 | COc1ccccc1[C@@H]1CC(=O)C2=C(C1)NC(C)=C(C(=O)OC1CCOCC1)[C@@H]2c1cccc(O)c1 [13d, tetrahydro-2H-pyran-4-yl-4-(3-hydroxyphenyl)-7-(2-methoxyphenyl)-2-methyl-5-oxo-1,4,5,6,7,8-hexahydro-3-quinolinecarboxylate] | 0.09
9 | COc1ccccc1[C@@H]1CC(=O)C2=C(C1)NC(C)=C(C(=O)OC1CCOCC1)[C@H]2c1cccc(O)c1 [13e, tetrahydro-2H-pyran-4-yl-4-(3-hydroxyphenyl)-7-(2-methoxyphenyl)-2-methyl-5-oxo-1,4,5,6,7,8-hexahydro-3-quinolinecarboxylate] | <0.01
10 | COc1ccccc1[C@H]1CC(=O)C2=C(C1)NC(C)=C(C(=O)OC1CCOCC1)[C@@H]2c1cccc(O)c1 [13f, tetrahydro-2H-pyran-4-yl-4-(3-hydroxyphenyl)-7-(2-methoxyphenyl)-2-methyl-5-oxo-1,4,5,6,7,8-hexahydro-3-quinolinecarboxylate] | <0.01
11 | COc1ccccc1[C@H]1CC(=O)C2=C(C1)NC(C)=C(C(=O)O[C@H]1CCOC1)[C@H]2c1cccc(O)c1 [50a, tetrahydrofuran-3-yl (4S, 7R)-4-(3-hydroxyphenyl)-7-(2-methoxyphenyl)-2-methyl-5-oxo-1,4,5,6,7,8-hexahydroquinoline-3-carboxylate] | 0.73
12 | COc1ccccc1[C@H]1CC(=O)C2=C(C1)NC(C)=C(C(=O)O[C@@H]1CCOC1)[C@H]2c1cccc(O)c1 [50b, tetrahydrofuran-3-yl (4S, 7R)-4-(3-hydroxyphenyl)-7-(2-methoxyphenyl)-2-methyl-5-oxo-1,4,5,6,7,8-hexahydroquinoline-3-carboxylate] | 1.23
13 | COc1ccccc1[C@H]1CC(=O)C2=C(C1)NC(C)=C(C(=O)OC1(C)CCOCC1)[C@H]2c1cccc(O)c1 [51a, 4-methyltetrahydro-2H-pyran-4-yl (4S, 7R)-4-(3-hydroxyphenyl)-7-(2-methoxyphenyl)-2-methyl-5-oxo-1,4,5,6,7,8-hexahydroquinoline-3-carboxylate] | 1.13
14 | COc1ccccc1[C@H]1CC(=O)C2=C(C1)NC(C)=C(C(=O)OC1CC(C)(C)OC(C)(C)C1)[C@H]2c1cccc(O)c1 [52a, 2,2,6,6-tetramethyltetrahydro-2H-pyran-4-yl (4S, 7R)-4-(3-hydroxyphenyl)-7-(2-methoxyphenyl)-2-methyl-5-oxo-1,4,5,6,7,8-hexahydroquinoline-3-carboxylate] | 0.62
15 | COc1ccccc1[C@H]1CC(=O)C2=C(C1)NC(C)=C(C(=O)OC1CC3CCC(C1)O3)[C@H]2c1cccc(O)c1 (stereo partly drawn) [53a, 8-oxabicyclo[3.2.1]octan-3-yl (4S, 7R)-4-(3-hydroxyphenyl)-7-(2-methoxyphenyl)-2-methyl-5-oxo-1,4,5,6,7,8-hexahydroquinoline-3-carboxylate] | 1.42
16 | COc1ccccc1[C@H]1CC(=O)C2=C(C1)NC(C)=C(C(=O)O[C@H]1CO[C@H]3OCC[C@H]31)[C@H]2c1cccc(O)c1 [55a, (3R,3aS,6aR)-hexahydrofuro[2,3-b]furan-3-yl (4S, 7R)-4-(3-hydroxyphenyl)-7-(2-methoxyphenyl)-2-methyl-5-oxo-1,4,5,6,7,8-hexahydroquinoline-3-carboxylate] | 0.61
17 | COc1ccccc1[C@H]1CC(=O)C2=C(C1)NC(C)=C(C(=O)OC1CCCC1)[C@H]2c1cccc(O)c1 [56a, cyclopentyl (4S, 7R)-4-(3-hydroxyphenyl)-7-(2-methoxyphenyl)-2-methyl-5-oxo-1,4,5,6,7,8-hexahydroquinoline-3-carboxylate] | 0.21
18 | COc1ccccc1[C@H]1CC(=O)C2=C(C1)NC(C)=C(C(=O)OC1CCCCC1)[C@H]2c1cccc(O)c1 [57a, cyclohexyl (4S, 7R)-4-(3-hydroxyphenyl)-7-(2-methoxyphenyl)-2-methyl-5-oxo-1,4,5,6,7,8-hexahydroquinoline-3-carboxylate] | 0.24
19 | CCOC(=O)C1=C(C)NC2=C(C(=O)C[C@H](c3ccccc3OC)C2)[C@@H]1c1cccc(O)c1 [58a, ethyl (4S, 7R)-4-(3-hydroxyphenyl)-7-(2-methoxyphenyl)-2-methyl-5-oxo-1,4,5,6,7,8-hexahydroquinoline-3-carboxylate] | 0.36
20 | CCCCOC(=O)C1=C(C)NC2=C(C(=O)C[C@H](c3ccccc3OC)C2)[C@@H]1c1cccc(O)c1 [59a, butyl (4S, 7R)-4-(3-hydroxyphenyl)-7-(2-methoxyphenyl)-2-methyl-5-oxo-1,4,5,6,7,8-hexahydroquinoline-3-carboxylate] | 0.18
21 | COc1ccccc1[C@H]1CC(=O)C2=C(C1)NC(C)=C(C(=O)OCC(C)(C)C)[C@H]2c1cccc(O)c1 [60a, neopentyl (4S, 7R)-4-(3-hydroxyphenyl)-7-(2-methoxyphenyl)-2-methyl-5-oxo-1,4,5,6,7,8-hexahydroquinoline-3-carboxylate] | 0.20
22 | CCC(CC)COC(=O)C1=C(C)NC2=C(C(=O)C[C@H](c3ccccc3OC)C2)[C@@H]1c1cccc(O)c1 [61a, 2-ethylbutyl (4S, 7R)-4-(3-hydroxyphenyl)-7-(2-methoxyphenyl)-2-methyl-5-oxo-1,4,5,6,7,8-hexahydroquinoline-3-carboxylate] | 0.10
23 | CCC(C)(C)COC(=O)C1=C(C)NC2=C(C(=O)C[C@H](c3ccccc3OC)C2)[C@@H]1c1cccc(O)c1 [62a, 2,2-dimethylbutyl (4S, 7R)-4-(3-hydroxyphenyl)-7-(2-methoxyphenyl)-2-methyl-5-oxo-1,4,5,6,7,8-hexahydroquinoline-3-carboxylate] | 0.10
24 | COc1ccccc1[C@H]1CC(=O)C2=C(C1)NC(C)=C(C(=O)OCCCC(C)(C)C)[C@H]2c1cccc(O)c1 [63a, 4,4-dimethylpentyl (4S, 7R)-4-(3-hydroxyphenyl)-7-(2-methoxyphenyl)-2-methyl-5-oxo-1,4,5,6,7,8-hexahydroquinoline-3-carboxylate] | 0.07
25 | CCOCCOCCOC(=O)C1=C(C)NC2=C(C(=O)C[C@H](c3ccccc3OC)C2)[C@@H]1c1cccc(O)c1 [64a, 2-(2-ethoxyethoxy)ethyl (4S, 7R)-4-(3-hydroxyphenyl)-7-(2-methoxyphenyl)-2-methyl-5-oxo-1,4,5,6,7,8-hexahydroquinoline-3-carboxylate] | 0.62
26 | CCCCCCOCCOCCOCCOC(=O)C1=C(C)NC2=C(C(=O)C[C@H](c3ccccc3OC)C2)[C@@H]1c1cccc(O)c1 [65a, 2-(2-(2-(hexyloxy)ethoxy)ethoxy)ethyl (4S, 7R)-4-(3-hydroxyphenyl)-7-(2-methoxyphenyl)-2-methyl-5-oxo-1,4,5,6,7,8-hexahydroquinoline-3-carboxylate] | 0.12

tested on: RBL cells; assay: Cell viability by live-dead staining (cytotoxicity), flow cytometry; format: cell-based, Rat; settings: Rattus norvegicus, RBL, cell viability via live/dead staining, 48-65 h, read-out: EC50 Toxicity
Experimental: as §1

Row | Structure (SMILES) | EC50
27 | COc1ccccc1[C@H]1CC(=O)C2=C(C1)NC(C)=C(C(=O)OC[C@@H]1CCCO1)[C@H]2c1cccc(O)c1 (racemic) [12c, tetrahydro-2-furanylmethyl-4-(3-hydroxyphenyl)-7-(2-methoxyphenyl)-2-methyl-5-oxo-1,4,5,6,7,8-hexahydro-3-quinolinecarboxylate] | > 4000 nM
